Assay results published in US20240400547A1, “2,6-PIPERIDINEDIONE COMPOUND AND APPLICATION THEREOF” (MEDSHINE DISCOVERY INC., priority 2021, published 2024).
Where a name gives a salt, the structure may show the parent alone.

Legend:
[1] = biological target: T1, IKZF1 (Homo sapiens, UniProt Q13422+Q96SW2); test: In Cell Western of IKZF1 protein expression level in MM.1S cells; assay type: cell-based; conditions: IKZF1, MM.1S cells, 24 hours; for Dmax: MM1.S, read-out: Maximum degradation rate Dmax
T1 construct: host or cells: MM.1S cells
T1 sequence (Q13422 whole entry): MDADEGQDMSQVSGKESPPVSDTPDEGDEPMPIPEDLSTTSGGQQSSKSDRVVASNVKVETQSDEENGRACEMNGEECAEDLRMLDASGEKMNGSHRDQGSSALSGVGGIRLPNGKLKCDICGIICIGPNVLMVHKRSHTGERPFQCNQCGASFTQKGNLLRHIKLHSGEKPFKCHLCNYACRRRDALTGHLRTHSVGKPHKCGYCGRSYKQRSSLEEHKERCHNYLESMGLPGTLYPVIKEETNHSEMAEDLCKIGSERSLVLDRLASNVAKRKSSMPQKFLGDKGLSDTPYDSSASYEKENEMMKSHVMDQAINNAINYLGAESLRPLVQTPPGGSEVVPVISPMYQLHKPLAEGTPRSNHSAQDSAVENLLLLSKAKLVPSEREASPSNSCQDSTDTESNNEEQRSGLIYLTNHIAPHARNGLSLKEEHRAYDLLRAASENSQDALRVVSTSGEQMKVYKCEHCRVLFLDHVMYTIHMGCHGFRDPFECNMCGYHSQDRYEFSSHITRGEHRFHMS
T1 sequence (Q96SW2 whole entry): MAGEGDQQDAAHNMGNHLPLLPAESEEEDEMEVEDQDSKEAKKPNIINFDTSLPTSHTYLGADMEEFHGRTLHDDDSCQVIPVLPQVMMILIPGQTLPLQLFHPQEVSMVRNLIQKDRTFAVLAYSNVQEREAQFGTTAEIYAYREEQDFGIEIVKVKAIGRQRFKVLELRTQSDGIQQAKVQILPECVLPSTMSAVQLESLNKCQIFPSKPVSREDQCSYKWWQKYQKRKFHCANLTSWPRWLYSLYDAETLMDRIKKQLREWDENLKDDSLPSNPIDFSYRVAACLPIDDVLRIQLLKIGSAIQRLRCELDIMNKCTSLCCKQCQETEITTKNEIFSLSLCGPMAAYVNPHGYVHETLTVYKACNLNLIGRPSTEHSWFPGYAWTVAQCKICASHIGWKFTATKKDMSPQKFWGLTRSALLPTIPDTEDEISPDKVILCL
T1 sequence (Q16531 whole entry partner): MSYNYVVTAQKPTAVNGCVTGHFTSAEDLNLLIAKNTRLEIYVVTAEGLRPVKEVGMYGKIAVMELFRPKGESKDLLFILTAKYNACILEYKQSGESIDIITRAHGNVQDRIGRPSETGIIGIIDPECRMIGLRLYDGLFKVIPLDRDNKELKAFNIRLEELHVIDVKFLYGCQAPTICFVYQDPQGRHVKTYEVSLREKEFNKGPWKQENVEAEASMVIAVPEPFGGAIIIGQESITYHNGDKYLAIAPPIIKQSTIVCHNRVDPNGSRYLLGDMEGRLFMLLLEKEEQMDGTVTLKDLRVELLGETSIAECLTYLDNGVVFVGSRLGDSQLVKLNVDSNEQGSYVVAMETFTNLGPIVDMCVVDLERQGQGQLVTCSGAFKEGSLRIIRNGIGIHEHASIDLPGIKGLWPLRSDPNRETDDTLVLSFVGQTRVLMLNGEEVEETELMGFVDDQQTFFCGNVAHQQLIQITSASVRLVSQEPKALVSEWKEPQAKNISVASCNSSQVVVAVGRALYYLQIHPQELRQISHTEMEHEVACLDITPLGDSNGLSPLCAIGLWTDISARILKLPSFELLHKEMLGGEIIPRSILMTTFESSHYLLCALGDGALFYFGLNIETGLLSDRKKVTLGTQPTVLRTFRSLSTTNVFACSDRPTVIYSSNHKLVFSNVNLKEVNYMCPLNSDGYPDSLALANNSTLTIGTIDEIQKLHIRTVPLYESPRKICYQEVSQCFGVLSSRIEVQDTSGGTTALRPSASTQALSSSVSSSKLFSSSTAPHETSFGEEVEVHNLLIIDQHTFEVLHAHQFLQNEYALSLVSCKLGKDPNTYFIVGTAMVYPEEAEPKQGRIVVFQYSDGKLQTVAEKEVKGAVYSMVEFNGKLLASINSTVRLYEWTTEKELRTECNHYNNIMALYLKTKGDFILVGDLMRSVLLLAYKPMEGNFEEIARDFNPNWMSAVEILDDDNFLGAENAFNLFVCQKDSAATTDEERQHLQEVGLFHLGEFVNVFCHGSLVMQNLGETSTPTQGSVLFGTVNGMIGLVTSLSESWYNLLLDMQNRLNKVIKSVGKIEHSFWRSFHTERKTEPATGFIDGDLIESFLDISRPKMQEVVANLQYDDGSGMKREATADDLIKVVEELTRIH
Description: Experimental objective: The experiment aims to assess the degradation effect of the test compounds on IKZF1 and 1KZF3 proteins in MM.1S cells by evaluating the impact of the test compounds on the expression levels of IKZF1 and IZKZF3 proteins in MM.1S cells.
• Cell lines: MMN.1 S cell (sourced from ATCC; Cat. No CRL-2974) • Negative control: 0.100 DMSO.
• 1) Log phase MM.1 S cells were plated in a 96-well plate at 1.2×10^5 cells per well and cultured overnight; • 2) The next day, compounds were added with a starting concentration of 300 nM, diluted threefold across three replicate wells for 10 concentration gradients (including DMSO), and the cells were incubated for 24 hours in an incubator; • 3) The cells were centrifuged, and the supernatant was carefully removed. 150 μL of 4% paraformaldehyde fixative was added along the wall of the wells, avoiding contact with the bottom cells, and the cells were incubated at room temperature for 20 minutes; • 4) Lysis buffer was prepared by mixing 0.5 mL of 10% Triton X-100 with 49.5 mL of PBS until homogenous; • 5) 200 μL of lysis buffer was added along the well walls, again avoiding the bottom cells, and incubated on a shaker at room temperature for 5 minutes; • 6) The wells were washed four times; • 7) 150 μL of Licor […] Blocking Buffer was added along the well walls, avoiding the bottom cells, and the cells were incubated on a shaker at room temperature for 1.5 hours; • 8) Ikaros (D6N9Y) Rabbit mAb, Aiolos (D1C1E) Rabbit mAb and GAPDH mouse mAb (proteintech, 60004-1-Ig) were diluted at a 1:100 ratio using antibody dilution buffer; • 9) 50 μL of mixed antibody was added to each well with three replicate wells, and the cells were incubated overnight on a shaker at 4° C.; • 10) PBST (PBS with 0.1% Tween 20) was prepared; • 11) The primary antibodies were removed, and 200 μL of PBST was added along the well walls, avoiding the bottom cells, and the cells were incubated on a shaker at room temperature for 5 minutes; • 12) The wells were washed four times; • 13) Secondary antibody dilution buffer was prepared by adding Tween 20 to Licor […] Blocking Buffer to a final concentration of 0.2%; • 14) Fluorescent secondary antibodies were diluted in the dark at a 1:800 ratio. To 400 μL of secondary antibody dilution solution, 0.5 μL of each IRDye 800CW and IRDye 680CW (corresponding to the primary antibodies) was added. • 15) 50 μL of the diluted fluorescent secondary antibodies was added to each well and the cells were incubated on a shaker at room temperature in the dark for 60 minutes; • 16) The secondary antibodies were removed, and 200 μL of PBST was added along the well walls, avoiding the bottom cells, and the cells were incubated on a shaker at room temperature in the dark for 5 minutes; • 17) The wells were washed four times; immediately after washing, the Odyssey Gel Imaging System was used for detection at dual wavelengths of 700 nm and 800 nm.
Using GraphPad Prism 6 software, inhibition rate data was entered to fit the curve and calculate the DC50 value.

[2] = biological target: T2, IRAK4 (Homo sapiens, UniProt Q9NWZ3); test: Target protein degradation in K562 IRAK4-HiBiT cells (Nano-Glo HiBiT); assay type: cell-based; conditions: 16 to 18 hours; for Dmax: read-out: Maximum degradation rate
T2 construct: expressed in transfected cells; host or cells: K562 IRAK4-HiBiT cells
T2 sequence (Q9NWZ3 1-460): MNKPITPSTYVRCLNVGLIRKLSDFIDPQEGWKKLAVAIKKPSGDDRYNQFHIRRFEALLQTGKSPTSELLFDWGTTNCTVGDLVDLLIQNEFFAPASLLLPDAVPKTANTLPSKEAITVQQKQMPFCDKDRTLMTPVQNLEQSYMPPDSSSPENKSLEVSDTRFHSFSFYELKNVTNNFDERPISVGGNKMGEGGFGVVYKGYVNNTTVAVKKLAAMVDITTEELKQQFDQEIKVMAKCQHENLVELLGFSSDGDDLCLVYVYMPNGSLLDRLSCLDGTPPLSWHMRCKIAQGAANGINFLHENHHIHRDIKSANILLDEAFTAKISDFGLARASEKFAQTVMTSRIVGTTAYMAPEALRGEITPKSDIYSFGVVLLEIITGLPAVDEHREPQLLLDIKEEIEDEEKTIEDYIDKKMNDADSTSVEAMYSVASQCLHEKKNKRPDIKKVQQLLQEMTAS
Description: Experimental objective: The experiment aims to evaluate the degradation effect of the test compounds on the target protein IRAK4 in K562 IRAK4-HiBiT cells.
• Cells: K562 IRAK4-HiBiT cells • Culture medium: RPMI 1640+10% fetal bovine serum+2 mM glutamine+1 mM sodium pyruvate+penicillin/streptomycin. • Positive control: 1000 nM; negative control: 0.1% DMSO.
• (1). The powder of the compound to be tested was dissolved in DMSO to a storage concentration of 10 mM. A total of 9 μL of the 10 mM of the compound to be tested was manually pipetted into the 1st and 13th columns of the LDV plate using a pipettor; • (2). A volume of 6 μL of DMSO was added to columns 2-12 and 14-24 using a Multidrop Combi; • (3). A 3-fold dilution of the test compounds (3 μL+6 μL) was performed using Bravo, for columns 1-11 and 13-23; • (4). According to the plate layout, 25 nL of compound solution (columns 1-24 of the LDV plate) was transferred to the experimental plate using Echo; • (5) 25 nL of the 1 mM positive control solution was transferred to the assay plate as a 100% degradation control (i.e. LC, HPE), and 25 nL of DMSO was transferred to the assay plate as a 0% control (i.e. HC, ZPE).
• (1) The culture medium was discarded, and the cells were washed once with DPBS, digested with trypsin, counted, and prepared into a cell suspension of […]. • (2) Using the MultiDrop Combi at a medium speed, 25 μL/well of the cell suspension was added to the experimental plate containing the test compounds; • (3) The experimental plate containing cells was returned to the incubator and cultured for 16 to 18 hours at 37° C. and 5% CO2.
• (1). Using the MultiDrop Combi at a high speed, 25 μL/well of the assay reagent (NanoGlo lytic solution+substrate+LgBit protein) was added to the assay plate, followed by shaking for 10 minutes; • (2) The plate was centrifuged at 2000 rpm for 1 minute to remove any bubbles; • (3) Readings were obtained by using an Envision, US Luminescence reader.
To calculate the degradation rate (DR) of the test compounds, the following formula is used: IR (%)=(RLU vehicle control−RLU compound)/(RLU vehicle control−RLU positive control)×100%. The solvent control refers to the blank control. The degradation rates of compounds at different concentrations were calculated in Excel, and then XLFit software was used to plot inhibition curves and calculate relevant parameters, including minimum degradation rate, maximum degradation rate, and DC50.

[3] = Pharmacokinetic evaluation in mice; assay type: in vivo, C57BL/6N or CD-1 male mice; conditions: intragastric administration 10 mg/kg, experimental operation A, fasted overnight
Text: In this study, C57BL/6N or CD-1 male mice were selected as test animals, and LC/MS/MS method was used to quantify plasma concentrations of the test compound intravenously injected or gavage to mice at different time points, so as to evaluate the pharmacokinetic profile of the compounds of the present disclosure in mice.
C57BL/6N mice (male, 20 to 30 g, 7 to 10 weeks old, Beijing VitalRiver) or CD-1 mice (male, 20 to 35 g, 7 to 10 weeks old, Beijing VitalRiver).
• The test compounds, either as clear or suspension solutions, were administered intravenously through the tail vein to C57BL/6N mice or CD-1 mice (either fasted overnight or fed) (vehicle: 10% DMSO/10% solutol/80% H2O or 5% DMSO/10% solutol/85% H2O), or intragastrically administered to C57BL/6N mice or CD-1 mice (either fasted overnight or fed). For intravenous injection, blood 50 μL was collected via the cheek vein puncture at 0 h (pre-administration), 0.083, 0.25, 0.5, 1, 2, 4, 6, 8, and 24 h after administration, and placed in an anticoagulant tube added with heparin sodium. The mixture was thoroughly vortexed and mixed, and centrifuged at 6000 g for 3 minutes at 2-8° C. For oral administration, blood was collected via the cheek vein puncture at 0 h (pre-administration), 0.083, 0.25, 0.5, 1, 2, 4, 6, 8, and 24 h after administration, and placed in an anticoagulant tube added with heparin sodium. The mixture was thoroughly vortexed and mixed, and centrifuged at 6000 g for 3 minutes at 2-8° C. Plasma concentrations were determined by LC-MS/MS method, and relevant pharmacokinetic parameters were calculated using Phoenix WinNonlin8.2.0 pharmacokinetic software with non-compartmental model linear-log trapezoidal method.
• The test compounds, as clear solutions, were administered intravenously through the tail vein to CD-1 mice (fasted overnight) (vehicle: 10% DMSO/10% solutol/80% H2O or 5% DMSO/10% solutol/85% H2O), or intragastrically administered to CD-1 mice (fasted overnight). For intravenous injection, blood was collected via the saphenous vein puncture at 0 h (pre-administration), 0.083, 0.25, 0.5, 1, 2, 4, 8, and 24 h after administration, and placed in a EDTA-K2 anticoagulant tube. The mixture was thoroughly vortexed and mixed, and centrifuged at 3200 g for 10 minutes at 4° C. to obtain plasma. For oral administration, blood was collected via the saphenous vein puncture at 0 h (pre-administration), 0.083, 0.25, 0.5, 1, 2, 4, 8, and 24 h after administration, and placed in a EDTA-K2 anticoagulant tube. The mixture was thoroughly vortexed and mixed, and centrifuged at 3200 g for 10 minutes at 4° C. to obtain plasma. Plasma concentrations were determined by LC-MS/MS method, and relevant pharmacokinetic parameters were calculated using Phoenix WinNonlin 6.3 pharmacokinetic software with non-compartmental model linear-log trapezoidal method.

Row | Compound | DC50 [1] | Dmax [1] | DC50 [2] | Dmax [2] | Area under drug-time curve (0-inf) [3] | Peak concentration [3] | Time to peak concentration [3]
1 | CN(CCCOCCCc1ccc2c(ccc3onc(C4CCC(=O)NC4=O)c32)c1)C[C@H]1CC[C@H](n2cc(NC(=O)c3coc(-c4ccnc(NCC5CC5)c4)n3)c(C(F)F)n2)CC1 (some centres unmarked) [Hydrochloride of WX016] | 6.02 nM | 81.6% | 70.7 nM | 93.1% | – | – | –
2 | CN(CCCOCCCc1cccc2c1ccc1onc(C3CCC(=O)NC3=O)c12)CC1CCC(n2cc(NC(=O)c3coc(-c4ccnc(NCC5CC5)c4)n3)c(C(F)F)n2)CC1 (centres unmarked) [Hydrochloride of WX013] | – | – | 48.7 nM | 101% | – | – | –
3 | CN(CCCOCCCc1cccc2c1ccc1occ(C3CCC(=O)NC3=O)c12)CC1CCC(n2cc(NC(=O)c3coc(-c4ccnc(NCC5CC5)c4)n3)c(C(F)F)n2)CC1 (centres unmarked) [Trifluoroacetate of WX010] | – | – | 50.2 nM | 81.7% | – | – | –
4 | O=C1CCC(c2coc3ccc(NC(=O)CN4CCN(C[C@H]5CC[C@H](n6cc(NC(=O)c7coc(-c8ccnc(NCC9CC9)c8)n7)c(C(F)F)n6)CC5)CC4)cc23)C(=O)N1 (some centres unmarked) [Hydrochloride of WX001] | – | – | 76.4 nM | 54.3% | – | – | –
5 | O=C1CCC(c2noc3ccc4cc(NC(=O)CN5CCN(CC6CCC(n7cc(NC(=O)c8coc(-c9ccnc(NCC%10CC%10)c9)n8)c(C(F)F)n7)CC6)CC5)ccc4c23)C(=O)N1 (centres unmarked) [Hydrochloride of WX015] | 7.7 nM | 81.8% | 47.1 nM | 100% | – | – | –
6 | CN(CCCOCCCc1ccc2c(ccc3occ(C4CCC(=O)NC4=O)c32)c1)C[C@H]1CC[C@H](n2cc(NC(=O)c3coc(-c4ccnc(NCC5CC5)c4)n3)c(C(F)F)n2)CC1 (some centres unmarked) [Hydrochloride of WX008] | 4.66 nM | 81.4% | 122 nM | 82.2% | – | – | –
7 | CC(C)(O)c1cc2nc([C@H]3CC[C@H](CN4CC5(CC(CCNc6ccc7c(ccc8onc(C9CCC(=O)NC9=O)c87)c6)C5)C4)CC3)sc2cc1NC(=O)c1cccc(C(F)(F)F)n1 (some centres unmarked) [WX021] | 2.66 nM | 87.6% | – | – | – | – | –

Further molecules by falling DC50 [2], results first:

Row | DC50 [1] | Dmax [1] | DC50 [2] | Dmax [2] | Area under drug-time curve (0-inf) [3] | Peak concentration [3] | Time to peak concentration [3] | Compound
8 | – | – | 35.1 nM | 97.4% | – | – | – | O=C1CCC(c2coc3ccc4cc(NC(=O)CN5CCN(C[C@H]6CC[C@H](n7cc(NC(=O)c8coc(-c9ccnc(NCC%10CC%10)c9)n8)c(C(F)F)n7)CC6)CC5)ccc4c23)C(=O)N1 (some centres unmarked) [WX007]
9 | – | – | 15.1 nM | 92% | 5.10 µM·h | 0.34 µM | 3.33 h | CC(C)(O)c1cc2nc([C@H]3CC[C@H](CN4CCC(C(F)(F)C(=O)Nc5cccc6c5ccc5onc(C7CCC(=O)NC7=O)c56)CC4)CC3)sc2cc1NC(=O)c1cccc(C(F)(F)F)n1 (some centres unmarked) [Formate of WX019]
10 | 38.8 nM | 61.8% | 4.26 nM | 112% | – | – | – | CC(C)(O)c1cc2nc([C@H]3CC[C@H](CN4CCN(CC(=O)Nc5cccc6c(C7CCC(=O)NC7=O)noc56)CC4)CC3)sc2cc1NC(=O)c1cccc(C(F)(F)F)n1 (some centres unmarked) [Formate of WX029]
11 | 35.2 nM | 60.8% | 1.75 nM | 117% | – | – | – | O=C1CCC(c2noc3c(NC(=O)C(F)(F)C4CCN(C[C@H]5CC[C@H](n6cc(NC(=O)c7coc(-c8ccnc(NCC9CC9)c8)n7)c(C(F)F)n6)CC5)CC4)cccc23)C(=O)N1 (some centres unmarked) [Formate of WX024]
